Test system: muc-5AC RNA
Assay: Biochemical study: Pseudomonas aeruginosa LPS aerosol-induced muc-5AC RNA in rat trachea (TaqMan real time PCR)
Assay type: in vivo
Details: 3 mg/kg p.o. 6 hours before LPS aerosol, trachea taken 20 hours after exposure, compared with vehicle pre-treatment
Protocol: Two different rat strains, BDE and F344/NHsd, were tested because previous studies had shown strain-related differences in reactivity to lipopolysaccharides.
Animals Used: Adult male rats, strain BDE/Han, average weight about […] (range 340 g to 450 g), and adult male F344/NHsd rats, average weight about 250 g (range 240 g to 260g).
Animal Maintenance: The rats were housed in air-conditioned rooms, at 21° C.-25° C., relative humidity between 50% and 65%, day-night cycle 12 hours. They were fed before the start of the experiment and received tap water ad lib. 18 hours prior to drug administration, food was withdrawn, but drinking water remained available.
The compound of formula (I), namely carbamic acid, [[4-[[3-[[4-[1-(4-hydroxyphenyl)-1-methylethyl]phenoxy]methyl]phenyl]methoxy]phenyl]iminomethyl]ethyl ester, was synthesized as described in the International Patent Application WO 96/02497 and jet milled. For administration to animals, the compound of formula (I) was first dissolved in LABRASOL® and a 7% emulsion was then prepared of this LABRASOL® solution in distilled water (homogenized). […]
Extraction and Quantitation of RNA: Total RNA was isolated with the RNeasy system (Qiagen, Germany). […] Quantitation of muc-5AC RNA was performed by the TAQMAN® real time PCR system using an ABI Prism 7700 Detector (Perkin Elmer Corporation, California USA). […]

CCOC(=O)/N=C(\N)c1ccc(OCc2cccc(COc3ccc(C(C)(C)c4ccc(O)cc4)cc3)c2)cc1 [compound (I)]
increase in tracheal epithelial expression of the muc-5AC gene (relative to 18S ribosomal RNA) after Pseudomonas aeruginosa aerosol (BDE strain rats, p=0.003): reduced this increase to less than half the value with only vehicle pre-treatment | increase in tracheal epithelial expression of the muc-5AC gene (relative to 18S ribosomal RNA) after Pseudomonas aeruginosa aerosol (F344 strain rats, p=0.010): reduced this increase to less than half the value with only vehicle pre-treatment

From patent publication US6576669B2 (Boehringer Ingelheim Pharma KG, priority 2001, dated 2003)
